Patent publication US20090258097A1, “EXTRACTS AND COMPOUNDS FROM "AGAPANTHUS AFRICANUS" AND THEIR USE AS BIOLOGICAL PLANT PROTECTING AGENTS” (AGRARFORUM AG, priority 2005, published 2009)

Key:
[1] = test system: Fusarium oxysporum; assay: In vitro mycelial growth inhibition (agar dilution); type: cell-based; details: for concentration showing strong antifungal activity: purified compounds
[2] = test system: Sporisorium sorghi; assay: Sorghum covered kernel smut field trial (seed treatment); type: in vivo; details: extract 2.0 g/l, Thiram 0.25% (w/w)
[3] = test system: Sporisorium cruentum; assay: Sorghum loose kernel smut field trial (seed treatment); type: in vivo; details: extract 2.0 g/l, Thiram 0.25% (w/w)
[4] = pure compounds from the most active P-TLC root fraction, following acidification

| Compound | % mycelial growth inhibition of F. oxysporum ([1]; pure compound from the most active P-TLC aerial plant part fraction) | % mycelial growth inhibition of F. oxysporum [1, 4] | concentration showing strong antifungal activity [1] | % mean smut incidence [2] | Yield (ton ha^−1) [2] | % mean smut incidence [3] | Yield (ton ha^−1) [3] |
| --- | --- | --- | --- | --- | --- | --- | --- |
| 3-[{O-β-D-glucopyranosyl-(1″-3′)-α-L-rhamnosyl-(1″-2′)}-β-D-glucopyranosyloxy]agapanthegenin [Compound 1] | 100% | 100% | approximately 125 μg/ml |  |  |  |  |
| CN(C)C(=S)SSC(=S)N(C)C [Thiram] |  |  |  | 0b % | 2.6ab ton ha^−1 | 0b % | 2.1ab ton ha^−1 |
| CC(=O)Oc1ccc(/C=C/C(=O)c2ccc(OC(C)=O)cc2OC(C)=O)cc1 [Compound 9, trans-4,2′,4′-Tri-O-acetylchalcone] |  | 97% | about 625 μg/ml |  |  |  |  |
| CC(=O)Oc1cc(OC(C)=O)c2c(c1)OC(c1ccc(OC(C)=O)c(OC(C)=O)c1)CC2=O (centres unmarked) [Compound 8, 5,7,3′4′-tetra-O-acetylflavanone] |  | 93% | about 625 μg/ml |  |  |  |  |
